According to US11517578B1, “Topical formulations containing erythritol and methods of treating skin conditions” (InnoMed Technologies, Inc., priority 2021, dated 2022):
“Also recorded” adds a separate entry of the source.

Test system: facial acne
Experiment: Topical treatment of facial acne in patients (case examples 1-3)
Type: in vivo, human
Details: patient history: OTC benzoyl peroxide gels and washes tried before the formulation
Text: In this example, a person visits a healthcare professional and complains of facial acne that has been persistent for the past three years. They describe sporadic facial breakouts that began gradually, varied in severity and never completely cleared. They explain that the breakouts contribute to feelings of low self-esteem.
The healthcare professional administers the formulation of erythritol and zinc to the patient. As detailed in Table 2, the formulation includes erythritol (3.75%) and zinc chloride (1.25%). The formulation allows for effective transdermal administration of the zinc chloride-erythritol mixture which can prevent or ameliorate bacterial growth at or near skin pores and hair follicles.
The patient is also advised to continue daily use of an OTC facial wash. After washing and rinsing the face, the patient applies the formulation to the entire face. After five to ten minutes, the face can be rinsed with water. The routine is repeated each day (i.e., twice per day). Within ten days, the acne is resolved by about 80% (i.e., about 80% of the acne is gone). The comedones, papules and pustules are less apparent and only visible at close proximity. The patient resumes twice daily use of the formulation. Within two weeks the signs/symptoms of acne are resolved by about 95%. The patient has a clear complexion. […]

`O=C(OOC(=O)c1ccccc1)c1ccccc1` [benzoyl peroxide] was tested. Which “improvement of facial acne” value did it give?
The value was “without improvement; also recorded: minimal or no significant improvement”.
